# Test results taken from patent US7795290B2 (Genentech, Inc., priority 2004, dated 2010).
# Molecular target: T1, AKT1 (Homo sapiens, UniProt P31749)
# T1 construct: purchased Upstate 14-276
# Assay: HTS ATP-utilizing enzyme assay, off-chip mobility-shift (Caliper HTS 250)
# Type: biochemical
# Details: kinase named = inhibitory activity/selectivity; test compound 10 μM; active = greater than three-sigma from mean
# Procedure, shortened: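 AKT1 activity was measured by off-chip mobility shift (Caliper HTS 250) as the ratio of peptide substrate to phosphorylated product. Test compound was at 10 μM, with 2.5 h incubation at 20–22° C. EDTA wells served as 100% control and DMSO wells as 0%. Hits were called at three-sigma limits.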
# T1 sequence (P31749 whole entry): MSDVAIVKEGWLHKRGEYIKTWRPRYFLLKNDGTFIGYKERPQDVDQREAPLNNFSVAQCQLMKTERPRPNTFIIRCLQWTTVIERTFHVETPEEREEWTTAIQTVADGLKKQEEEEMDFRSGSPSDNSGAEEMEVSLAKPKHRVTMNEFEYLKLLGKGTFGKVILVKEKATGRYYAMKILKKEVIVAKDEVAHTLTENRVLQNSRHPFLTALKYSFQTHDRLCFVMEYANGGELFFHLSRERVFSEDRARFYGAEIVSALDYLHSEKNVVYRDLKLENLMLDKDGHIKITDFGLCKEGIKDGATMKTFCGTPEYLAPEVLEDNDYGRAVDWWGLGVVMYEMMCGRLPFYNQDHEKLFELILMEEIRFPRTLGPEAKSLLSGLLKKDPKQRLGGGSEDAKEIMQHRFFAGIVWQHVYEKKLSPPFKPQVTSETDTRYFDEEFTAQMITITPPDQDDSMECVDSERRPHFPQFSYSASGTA
row,Compound,Activity
1,O=C1CN(C(=O)CCCN(C(=O)c2cccs2)c2nc(-c3cc4ccccc4o3)cs2)CCN1 [N-(4-(benzofuran-2-yl)thiazol-2-yl)-N-(4-oxo-4-(3-oxopiperazin-1-yl)butyl)thiophene-2-carboxamide],AKT1
2,CS(=O)(=O)N1CCN(CCCN(C(=O)c2cccs2)c2nc(-c3cc4ccccc4o3)cs2)CC1 [N-(4-(benzofuran-2-yl)thiazol-2-yl)-N-(3-(4-(methylsulfonyl)piperazin-1-yl)propyl)thiophene-2-carboxamide],AKT1
3,CC(C)(C)OC(=O)N1CCN(C(=O)CCCN(C(=O)c2cccs2)c2nc(-c3cc4ccccc4o3)cs2)CC1 [tert-butyl 4-(4-(N-(4-(benzofuran-2-yl)thiazol-2-yl)thiophene-2-carboxamido)butanoyl)piperazine-1-carboxylate],AKT1
4,"CCN(CC)CCCN(C(=O)c1cccs1)c1nc(-c2ccc(OC)c(OC)c2)cs1 [N-(3-(diethylamino)propyl)-N-(4-(3,4-dimethoxyphenyl)thiazol-2-yl)thiophene-2-carboxamide]",AKT1
5,COC(=O)CNC(=O)CCN(C(=O)c1cccs1)c1nc(-c2cc3ccccc3o2)cs1 [methyl 2-(3-(N-(4-(benzofuran-2-yl)thiazol-2-yl)thiophene-2-carboxamido)propanamido)acetate],AKT1
6,"COc1ccc(OC)c(-c2csc(N(CCCN3CCCC3)C(=O)c3cccs3)n2)c1 [N-(4-(2,5-dimethoxyphenyl)thiazol-2-yl)-N-(3-(pyrrolidin-1-yl)propyl)thiophene-2-carboxamide]",AKT1
7,"O=C(CCN(C(=O)c1cccs1)c1nc(-c2cc3ccccc3o2)cs1)NCC1COCCO1 (centres unmarked) [N-(3-((1,4-dioxan-2-yl)methylamino)-3-oxopropyl)-N-(4-(benzofuran-2-yl)thiazol-2-yl)thiophene-2-carboxamide]",AKT1
8,O=C(O)Cc1ccc(-c2csc(N(CCCN3CCOCC3)C(=O)c3cccs3)n2)s1 [2-(5-(2-(N-(3-morpholinopropyl)thiophene-2-carboxamido)thiazol-4-yl)thiophen-2-yl)acetic acid],AKT1
9,O=C(NCCO)C1CCN(C(=O)CCCN(C(=O)c2cccs2)c2nc(-c3cc4ccccc4o3)cs2)CC1 [1-(4-(N-(4-(benzofuran-2-yl)thiazol-2-yl)thiophene-2-carboxamido)butanoyl)-N-(2-hydroxyethyl)piperidine-4-carboxamide],AKT1
10,CN(C)CCNC(=O)c1ccc(-c2csc(N(CCCN3CCOCC3)C(=O)c3cccs3)n2)cc1 [N-(4-(4-(2-(dimethylamino)ethylcarbamoyl)phenyl)thiazol-2-yl)-N-(3-morpholinopropyl)thiophene-2-carboxamide],AKT1
11,Cc1ccc(-c2csc(N(CCCN3CCOCC3)C(=O)c3cccs3)n2)cc1 [N-(3-morpholinopropyl)-N-(4-p-tolylthiazol-2-yl)thiophene-2-carboxamide],AKT1
12,"COc1ccc(OC)c(-c2csc(N(CCCN3CCCCC3)C(=O)c3ccco3)n2)c1 [N-(4-(2,5-dimethoxyphenyl)thiazol-2-yl)-N-(3-(piperidin-1-yl)propyl)furan-2-carboxamide]",AKT1
13,COc1ccc(-c2csc(N(CCCN3CCCCC3)C(=O)c3cccs3)n2)cc1 [N-(4-(4-methoxyphenyl)thiazol-2-yl)-N-(3-(piperidin-1-yl)propyl)thiophene-2-carboxamide],AKT1
14,O=C(NCCO)C1CCCN(C(=O)CCN(C(=O)c2cccs2)c2nc(-c3cc4ccccc4o3)cs2)C1 (centres unmarked) [1-(3-(N-(4-(benzofuran-2-yl)thiazol-2-yl)thiophene-2-carboxamido)propanoyl)-N-(2-hydroxyethyl)piperidine-3-carboxamide],AKT1
15,"COc1ccc(-c2csc(N(CCCN3CCCCC3)C(=O)c3cccs3)n2)cc1OC [N-(4-(3,4-dimethoxyphenyl)thiazol-2-yl)-N-(3-(piperidin-1-yl)propyl)thiophene-2-carboxamide]",AKT1
16,"COc1ccc(-c2csc(N(CCCN3CCOCC3)C(=O)c3ccco3)n2)cc1OC [N-(4-(3,4-dimethoxyphenyl)thiazol-2-yl)-N-(3-morpholinopropyl)furan-2-carboxamide]",AKT1
17,O=C(CCCN(C(=O)c1cccs1)c1nc(-c2cc3ccccc3o2)cs1)NCc1cccnc1 [N-(4-(benzofuran-2-yl)thiazol-2-yl)-N-(4-oxo-4-(pyridin-3-ylmethylamino)butyl)thiophene-2-carboxamide],AKT1
18,O=C(c1cccs1)N(CCCN1CCOCC1)c1nc(-c2ccc(F)cc2)cs1 [N-(4-(4-fluorophenyl)thiazol-2-yl)-N-(3-morpholinopropyl)thiophene-2-carboxamide],AKT1
19,O=C(c1cccs1)N(CCCN1CCOCC1)c1nc(-c2ccc3ccccc3c2)cs1 [N-(3-morpholinopropyl)-N-(4-(naphthalen-2-yl)thiazol-2-yl)thiophene-2-carboxamide],AKT1
20,O=C(c1cccs1)N(CCCC(=O)N1CCCC1c1cccnc1)c1nc(-c2cc3ccccc3o2)cs1 (centres unmarked) [N-(4-(benzofuran-2-yl)thiazol-2-yl)-N-(4-oxo-4-(2-(pyridin-3-yl)pyrrolidin-1-yl)butyl)thiophene-2-carboxamide],AKT1
21,"CN(C)S(=O)(=O)N1CCN(C(=O)CCCN(C(=O)c2cccs2)c2nc(-c3cc4ccccc4o3)cs2)CC1 [N-(4-(benzofuran-2-yl)thiazol-2-yl)-N-(4-(4-(N,N-dimethylsulfamoyl)piperazin-1-yl)-4-oxobutyl)thiophene-2-carboxamide]",AKT1
22,O=C(c1cccs1)N(CCCN1CCC(N2CCOCC2)CC1)c1nc(-c2cc3ccccc3o2)cs1 [N-(4-(benzofuran-2-yl)thiazol-2-yl)-N-(3-(4-morpholinopiperidin-1-yl)propyl)thiophene-2-carboxamide],AKT1
23,O=C(c1ccccn1)N(CCCN1CCOCC1)c1nc(-c2cc3ccccc3o2)cs1 [N-(4-(benzofuran-2-yl)thiazol-2-yl)-N-(3-morpholinopropyl)picolinamide],AKT1
24,O=C(O)CCOc1ccc(-c2csc(N(CCCN3CCOCC3)C(=O)c3cccs3)n2)cc1 [3-(4-(2-(N-(3-morpholinopropyl)thiophene-2-carboxamido)thiazol-4-yl)phenoxy)propanoic acid],AKT1
25,CC(=O)N1CCN(CCCN(C(=O)c2cccs2)c2nc(-c3cc4ccccc4o3)cs2)CC1 [N-(3-(4-acetylpiperazin-1-yl)propyl)-N-(4-(benzofuran-2-yl)thiazol-2-yl)thiophene-2-carboxamide],AKT1
26,COc1ccc(-c2csc(N(CCCN3CCOCC3)C(=O)c3ccc(Cl)s3)n2)cc1 [5-chloro-N-(4-(4-methoxyphenyl)thiazol-2-yl)-N-(3-morpholinopropyl)thiophene-2-carboxamide],AKT1
27,CN(C)CCOc1cccc(-c2csc(N(CCCN3CCOCC3)C(=O)c3cccs3)n2)c1 [N-(4-(3-(2-(dimethylamino)ethoxy)phenyl)thiazol-2-yl)-N-(3-morpholinopropyl)thiophene-2-carboxamide],AKT1
28,O=C(N1CCOCC1)N1CCN(CCCN(C(=O)c2cccs2)c2nc(-c3cc4ccccc4o3)cs2)CC1 [N-(4-(benzofuran-2-yl)thiazol-2-yl)-N-(3-(4-(morpholine-4-carbonyl)piperazin-1-yl)propyl)thiophene-2-carboxamide],AKT1
29,CN(C)CCOc1ccc(-c2csc(N(CCCN3CCOCC3)C(=O)c3cccs3)n2)cc1 [N-(4-(4-(2-(dimethylamino)ethoxy)phenyl)thiazol-2-yl)-N-(3-morpholinopropyl)thiophene-2-carboxamide],AKT1
